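Each compound was tested at five concentrations against cells in 96-well plates for 48 hours. Here, GI50 denotes the concentration required for 50% inhibition of growth. TGI denotes the concentration required for complete inhibition of growth.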
Assays:
Assay in all cases: NCI tumour cell line growth inhibition, 48 h
MDA-MB-231 breast = test system: MDA-MB-231 breast
MDA-MB-435 = test system: MDA-MB-435
NCI/ADR-RES ovarian = test system: NCI/ADR-RES ovarian
PC-3 prostate = test system: PC-3 prostate
MDA-N = test system: MDA-N
DLD-1 colon = test system: DLD-1 colon
LXFL 529 NSCLC = test system: LXFL 529 NSCLC

Compound: COc1ccccc1/C=C/C(=O)/C=C/c1ccccc1O
- GI50 (MDA-MB-231 breast): 1.67 µM
- TGI (MDA-MB-231 breast): 4.26 µM
- GI50 (MDA-MB-435): 1.51 µM
- TGI (MDA-MB-435): 3.81 µM
- GI50 (NCI/ADR-RES ovarian): 2.86 µM
- TGI (NCI/ADR-RES ovarian): 15 µM
- GI50 (PC-3 prostate): 0.539 µM
- TGI (PC-3 prostate): 2.75 µM

Compound: COc1ccc(-c2nnc(N3CCN(C(=O)CN4CCN(c5ccc(OC)cc5)CC4)CC3)nc2-c2ccc(OC)cc2)cc1
- GI50 (MDA-MB-231 breast): 11.7 µM
- TGI (MDA-MB-231 breast): 41.2 µM
- GI50 (MDA-MB-435): 4.01 µM
- TGI (MDA-MB-435): > 55.9 µM
- GI50 (NCI/ADR-RES ovarian): 9.89 µM
- TGI (NCI/ADR-RES ovarian): 31.9 µM
- GI50 (PC-3 prostate): 8.49 µM
- TGI (PC-3 prostate): 26.9 µM

Compound: O=C(O)CCC(NC(=S)S)C(=O)O.[Na+].[Zn+2] (configuration not stated)
- GI50 (MDA-MB-231 breast): > 50 µM
- TGI (MDA-MB-231 breast): > 50 µM
- GI50 (MDA-MB-435): > 50 µM
- TGI (MDA-MB-435): > 50 µM
- GI50 (NCI/ADR-RES ovarian): > 50 µM
- TGI (NCI/ADR-RES ovarian): > 50 µM
- GI50 (PC-3 prostate): > 50 µM
- TGI (PC-3 prostate): > 50 µM

Compound: C[C@H](Cn1ncnn1)Nc1ncc2cc(Oc3ccc(F)cc3F)c(=O)n(C)c2n1
- GI50 (MDA-MB-231 breast): > 25 µM
- TGI (MDA-MB-231 breast): > 25 µM
- GI50 (MDA-MB-435): > 25 µM
- TGI (MDA-MB-435): > 25 µM
- GI50 (NCI/ADR-RES ovarian): > 25 µM
- TGI (NCI/ADR-RES ovarian): > 25 µM
- GI50 (PC-3 prostate): > 25 µM
- TGI (PC-3 prostate): > 25 µM

Compound: Cn1cc(-c2csc(-c3cn(C)c4ccccc34)n2)c2cnccc21
- GI50 (MDA-MB-231 breast): 1.47 µM
- TGI (MDA-MB-231 breast): 2.89 µM
- GI50 (MDA-MB-435): 1.77 µM
- TGI (MDA-MB-435): 3.24 µM
- GI50 (NCI/ADR-RES ovarian): 1.83 µM
- TGI (NCI/ADR-RES ovarian): 4.32 µM
- GI50 (PC-3 prostate): 1.47 µM
- TGI (PC-3 prostate): 2.99 µM

Compound: CCCCCCCCCCCC[n+]1ccccc1 (tested in a mixture with another compound)
- GI50 (MDA-MB-231 breast): 1.22 µM
- TGI (MDA-MB-231 breast): 3.37 µM
- GI50 (MDA-MB-435): 0.678 µM
- TGI (MDA-MB-435): 2.47 µM
- GI50 (NCI/ADR-RES ovarian): 14.4 µM
- TGI (NCI/ADR-RES ovarian): 52.2 µM
- GI50 (PC-3 prostate): 0.208 µM
- TGI (PC-3 prostate): 0.937 µM

Compound: Cn1c2ccccc2c2c(=O)c3ccccc3[nH]c21
- GI50 (MDA-MB-231 breast): 87.1 µM
- TGI (MDA-MB-231 breast): > 100 µM
- GI50 (MDA-MB-435): 70.2 µM
- TGI (MDA-MB-435): > 100 µM
- GI50 (NCI/ADR-RES ovarian): 43.7 µM
- TGI (NCI/ADR-RES ovarian): > 100 µM
- GI50 (PC-3 prostate): 27.5 µM
- TGI (PC-3 prostate): 73.2 µM

Compound: O=C1C(SCCO)=C(SCCO)C(=O)c2ccccc21
- TGI (MDA-MB-231 breast): 4.15 µM
- TGI (MDA-MB-435): 0.348 µM
- TGI (MDA-N): 0.314 µM
- TGI (NCI/ADR-RES ovarian): 2.53 µM
- TGI (PC-3 prostate): 6.1 µM

Compound: O=c1c2c3c(sc2n2c(-c4cc(-c5ccccc5)nn4-c4ccccc4)nnc2n1Cc1ccccc1)CCCC3
- GI50 (MDA-MB-231 breast): > 100 µM
- TGI (MDA-MB-231 breast): > 100 µM
- GI50 (MDA-MB-435): > 100 µM
- TGI (MDA-MB-435): > 100 µM
- GI50 (NCI/ADR-RES ovarian): > 100 µM
- TGI (NCI/ADR-RES ovarian): > 100 µM
- GI50 (PC-3 prostate): > 100 µM
- TGI (PC-3 prostate): > 100 µM

Compound: O=C(c1ccc2ccccc2c1)c1c(C(F)(F)F)n([O-])c2ccc(Cl)cc2[n+]1=O
- GI50 (MDA-MB-231 breast): 1.59 µM
- TGI (MDA-MB-231 breast): 3.21 µM
- GI50 (MDA-MB-435): 1.66 µM
- TGI (MDA-MB-435): 3.17 µM
- GI50 (NCI/ADR-RES ovarian): 1.89 µM
- TGI (NCI/ADR-RES ovarian): 3.86 µM

Compound: CC(=O)[CH-]C(C)=O.[CH2-]C.[CH2-]C.[Tl+3]
- GI50 (DLD-1 colon): > 100 µM
- TGI (DLD-1 colon): > 100 µM
- GI50 (LXFL 529 NSCLC): > 100 µM
- TGI (LXFL 529 NSCLC): > 100 µM

Compound: COc1ccccc1-c1cc(=O)c2ccc(C)nc2[nH]1
- TGI (MDA-MB-231 breast): > 100 µM
- GI50 (MDA-MB-435): 22 µM
- TGI (MDA-MB-435): 48.7 µM
- GI50 (MDA-N): 20.1 µM
- TGI (MDA-N): 41.5 µM
- TGI (NCI/ADR-RES ovarian): > 100 µM
- GI50 (PC-3 prostate): > 100 µM
- TGI (PC-3 prostate): > 100 µM

— PubChem BioAssay (NCI)
